Assay results from ChEMBL document CHEMBL1201862, “PubChem BioAssay data set” (2004).
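Dose response: 5 concentrations. Exposure: 48 h. Format: 96-well plates. Endpoint: linear interpolation; highest concentration if not reached. Here, GI50 denotes the concentration required for 50% inhibition of growth.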 Active and inactive are the calls of the source. No stated cut-off is given here; in the data, active = GI50 up to about 1.1 µM and inactive = higher.

Columns and labels:
Test in all cases: DTP human tumour cell line panel, 48 h
COLO 205 = test system: COLO 205
DU-145 = test system: DU-145
EKVX = test system: EKVX
HCT-116 = test system: HCT-116
HCT-15 = test system: HCT-15
IGROV-1 = test system: IGROV-1
MDA-MB-231 = test system: MDA-MB-231
MDA-MB-435 = test system: MDA-MB-435
Malme-3M = test system: Malme-3M
NCI-H226 = test system: NCI-H226
NCI-H23 = test system: NCI-H23
RXF 393 = test system: RXF 393
SF-268 = test system: SF-268
SN12C = test system: SN12C
SNB-75 = test system: SNB-75
SW-620 = test system: SW-620
TK-10 = test system: TK-10
UACC-257 = test system: UACC-257
HL-60 = test system: HL-60
RPMI-8226 = test system: RPMI-8226

| Compound | GI50 (COLO 205) | GI50 (DU-145) | GI50 (EKVX) | GI50 (HCT-116) | GI50 (HCT-15) [µM] | GI50 (IGROV-1) | GI50 (MDA-MB-231) | GI50 (MDA-MB-435) | GI50 (Malme-3M) | GI50 (NCI-H226) | GI50 (NCI-H23) | GI50 (RXF 393) | GI50 (SF-268) | GI50 (SN12C) | GI50 (SNB-75) | GI50 (SW-620) | GI50 (TK-10) | GI50 (UACC-257) | GI50 (HL-60) | GI50 (RPMI-8226) |
| --- | --- | --- | --- | --- | --- | --- | --- | --- | --- | --- | --- | --- | --- | --- | --- | --- | --- | --- | --- | --- |
| CCn1c(=O)c2c3ccc(OC)cc3[nH]c2c2ccc(OC)cc21 | 39.4 µM (inactive) | 43.9 µM (inactive) | 57.8 µM (inactive) | 30.2 µM (inactive) | 41.2 | > 100 µM (inactive) | 57 µM (inactive) | > 100 µM (inactive) | 61 µM (inactive) | > 100 µM (inactive) | > 100 µM (inactive) | 29.3 µM (inactive) | 62.2 µM (inactive) | > 100 µM (inactive) | 19.8 µM (inactive) | 57.3 µM (inactive) | > 100 µM (inactive) | 71.3 µM (inactive) |  |  |
| O=C(CC1C=CCS1(=O)=O)NCc1ccccc1 (centres undefined) | > 100 µM (inactive) | > 100 µM (inactive) | > 100 µM (inactive) | > 100 µM (inactive) | > 100 | > 100 µM (inactive) | > 100 µM (inactive) | > 100 µM (inactive) |  | > 100 µM (inactive) | > 100 µM (inactive) | > 100 µM (inactive) | > 100 µM (inactive) | > 100 µM (inactive) | > 100 µM (inactive) | > 100 µM (inactive) | > 100 µM (inactive) | > 100 µM (inactive) | > 100 µM (inactive) |  |
| O=C(O)/C=N\N=c1[nH]c2ccccc2[nH]1 | > 100 µM (inactive) | > 100 µM (inactive) | > 100 µM (inactive) | > 100 µM (inactive) | > 100 | > 100 µM (inactive) | > 100 µM (inactive) | > 100 µM (inactive) | > 100 µM (inactive) | > 100 µM (inactive) | > 100 µM (inactive) |  | > 100 µM (inactive) | > 100 µM (inactive) | > 100 µM (inactive) | > 100 µM (inactive) | > 100 µM (inactive) | > 100 µM (inactive) | > 100 µM (inactive) | > 100 µM (inactive) |
| CC1(C)CC[C@]2(C)[C@@H](O)C[C@]3(C)C(=CC[C@@H]4[C@@]5(C)CC[C@H](O)C(C)(C)[C@@H]5CC[C@]43C)[C@@H]2C1 | 48.6 µM (inactive) | 40.6 µM (inactive) | 38.8 µM (inactive) | 41.5 µM (inactive) | 81.1 | 35.9 µM (inactive) | 16.8 µM (inactive) | > 100 µM (inactive) | 29.4 µM (inactive) | 35 µM (inactive) | 29.4 µM (inactive) | 7.24 µM (inactive) | 46.3 µM (inactive) | 56.9 µM (inactive) |  | > 100 µM (inactive) | 27.9 µM (inactive) | 49.5 µM (inactive) | > 100 µM (inactive) |  |
| COc1ccc(N2C(=O)C3c4[nH]c5ccc(C)cc5c4C4CCC(C(C)(C)C)CC4C3C2=O)cc1 (centres undefined) | 18.4 µM (inactive) | > 100 µM (inactive) | 31 µM (inactive) | 7.66 µM (inactive) | 27.5 | 38.9 µM (inactive) | 35.9 µM (inactive) | 24.9 µM (inactive) |  | 21.1 µM (inactive) | 22.3 µM (inactive) | 16.9 µM (inactive) | 13 µM (inactive) | 48.4 µM (inactive) | 2.96 µM (inactive) | 5.58 µM (inactive) | 17.1 µM (inactive) | 23.8 µM (inactive) | 19.1 µM (inactive) | 11.2 µM (inactive) |
| NC(=S)N/N=C(\Cc1nc2ccc(Cl)cc2nc1O)C(=O)Nc1ccc(Cl)cc1 | > 100 µM (inactive) | > 100 µM (inactive) | 76 µM (inactive) | > 100 µM (inactive) | > 100 | > 100 µM (inactive) | > 100 µM (inactive) | > 100 µM (inactive) |  | 96.2 µM (inactive) | > 100 µM (inactive) | > 100 µM (inactive) | > 100 µM (inactive) | > 100 µM (inactive) | > 100 µM (inactive) | > 100 µM (inactive) | > 100 µM (inactive) | > 100 µM (inactive) | > 100 µM (inactive) |  |
| CCc1nc(N)c2nc(-c3cccs3)oc2n1 | > 100 µM (inactive) | > 100 µM (inactive) | 50.1 µM (inactive) | > 100 µM (inactive) | 86.9 | 69.7 µM (inactive) | > 100 µM (inactive) | > 100 µM (inactive) |  | > 100 µM (inactive) | > 100 µM (inactive) | > 100 µM (inactive) | > 100 µM (inactive) | > 100 µM (inactive) | 71.4 µM (inactive) | > 100 µM (inactive) | > 100 µM (inactive) | > 100 µM (inactive) | > 100 µM (inactive) | 84.1 µM (inactive) |
